In US20230374035A1, “RAS INHIBITORS” (Revolution Medicines, Inc., priority 2019, published 2023):
Where two headings read alike, the source gives them in different places.

Experiments:
NCI-H358 (K-Ras G12C) = assay: CellTiter-Glo Cell Viability Assay; format: cell-based; conditions: Homo sapiens, NCI-H358, 120 h; H358, 5-day treatment
NRAS Q61R = NRAS Q61R (Homo sapiens, UniProt P01111+P62937, Q61R); assay: Disruption of BRAF RBD interaction with Ras (FRET / MOA assay); format: biochemical; conditions: read-out: NRAS Q61R FRET data IC50
NRAS Q61R, sequence (P01111 whole entry Q61R): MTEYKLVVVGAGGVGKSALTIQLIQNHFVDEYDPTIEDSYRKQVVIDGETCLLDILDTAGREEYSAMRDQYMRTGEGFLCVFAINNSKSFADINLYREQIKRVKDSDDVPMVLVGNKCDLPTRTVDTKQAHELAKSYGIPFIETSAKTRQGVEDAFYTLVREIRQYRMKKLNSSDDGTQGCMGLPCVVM
NRAS Q61R, sequence (P62937 whole entry): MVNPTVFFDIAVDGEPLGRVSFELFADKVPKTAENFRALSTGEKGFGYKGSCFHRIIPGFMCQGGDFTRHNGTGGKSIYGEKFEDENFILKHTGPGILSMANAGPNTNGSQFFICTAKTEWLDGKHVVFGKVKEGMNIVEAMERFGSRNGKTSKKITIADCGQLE
Outline: (§1)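 Test compounds drive ternary complex formation between nucleotide-loaded Ras and Cyclophilin A, which disrupts Ras binding to a BRAF^RBD construct. Compound was tested as a 10-point 3-fold dilution series from 30 μM final. IC50 was derived from the decrease in TR-FRET ratio relative to DMSO control wells.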

NRAS Q61K = NRAS Q61K (Homo sapiens, UniProt P01111+P62937, Q61K); assay: as above; format: biochemical; conditions: read-out: NRAS Q61K FRET data IC50
NRAS Q61K, sequence (P01111 whole entry Q61K): as the sequence (P01111 whole entry Q61R) above, with R61K counted along it
NRAS Q61K, sequence (P62937 whole entry): as the sequence (P62937 whole entry) above
Outline: as §1

NRAS WT = NRAS WT (Homo sapiens, UniProt P01111+P62937); assay: as above; format: biochemical; conditions: read-out: NRAS WT FRET data IC50
NRAS WT, sequence (P01111 whole entry): as the sequence (P01111 whole entry Q61R) above, with R61Q counted along it
NRAS WT, sequence (P62937 whole entry): as the sequence (P62937 whole entry) above
Outline: as §1

NRAS G12C = NRAS G12C (Homo sapiens, UniProt P01111+P62937, G12C); assay: as above; format: biochemical
NRAS G12C, sequence (P01111 whole entry G12C): as the sequence (P01111 whole entry Q61R) above, with G12C, R61Q counted along it
NRAS G12C, sequence (P62937 whole entry): as the sequence (P62937 whole entry) above
Outline: as §1

KRAS G13C = KRAS G13C (Homo sapiens, UniProt P01116+P62937, G13C); assay: Disruption of BRAF RBD interaction with K-Ras (FRET / MOA assay); format: biochemical
KRAS G13C, sequence (P01116 1-188 isoform P01116-2 G13C): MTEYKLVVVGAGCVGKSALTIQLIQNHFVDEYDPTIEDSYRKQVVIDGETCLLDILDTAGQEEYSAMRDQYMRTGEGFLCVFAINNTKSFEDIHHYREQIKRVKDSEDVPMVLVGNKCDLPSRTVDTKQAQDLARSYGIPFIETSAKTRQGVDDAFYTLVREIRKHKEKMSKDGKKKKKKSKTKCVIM
KRAS G13C, sequence (P62937 whole entry): as the sequence (P62937 whole entry) above
Method: (§2) Compound is present in plate wells as a 10-point 3-fold dilution series starting at a final concentration of 30 μM. […] Compounds that facilitate disruption of a Ras:RAF complex are identified as those eliciting a decrease in the TR-FRET ratio relative to DMSO control wells.
(§3) Note—The following protocol describes a procedure for monitoring disruption of K-Ras G12C (GMP-PNP) binding to BRAF^RBD by a compound of the invention. This protocol may also be executed substituting other Ras proteins or nucleotides.
(§4) The purpose of this biochemical assay was to measure the ability of test compounds to facilitate ternary complex formation between a nucleotide-loaded K-Ras isoform and Cyclophilin A; the resulting ternary complex disrupts binding to a BRAF^RBD construct, inhibiting K-Ras signaling through a RAF effector. Data is reported as IC50 values.
(§5) Compound was present in plate wells as a 10-point 3-fold dilution series starting at a final concentration of 30 μM. […] Compounds that facilitate disruption of a K-Ras:RAF complex were identified as those eliciting a decrease in the TR-FRET ratio relative to DMSO control wells.

KRAS G12S = KRAS G12S (Homo sapiens, UniProt P01116+P62937, G12S); assay: as above; format: biochemical
KRAS G12S, sequence (P01116 1-188 isoform P01116-2 G12S): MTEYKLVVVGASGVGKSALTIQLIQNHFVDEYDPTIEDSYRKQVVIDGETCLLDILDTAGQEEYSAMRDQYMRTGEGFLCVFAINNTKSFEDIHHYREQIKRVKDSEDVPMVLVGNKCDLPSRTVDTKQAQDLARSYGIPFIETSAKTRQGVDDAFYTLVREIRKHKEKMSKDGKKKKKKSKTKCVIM
KRAS G12S, sequence (P62937 whole entry): as the sequence (P62937 whole entry) above
Method: as §2, §3, §4, §5

KRAS G12C = KRAS G12C (Homo sapiens, UniProt P01116+P62937, G12C); assay: as above; format: biochemical
KRAS G12C, sequence (P01116 1-188 isoform P01116-2 G12C): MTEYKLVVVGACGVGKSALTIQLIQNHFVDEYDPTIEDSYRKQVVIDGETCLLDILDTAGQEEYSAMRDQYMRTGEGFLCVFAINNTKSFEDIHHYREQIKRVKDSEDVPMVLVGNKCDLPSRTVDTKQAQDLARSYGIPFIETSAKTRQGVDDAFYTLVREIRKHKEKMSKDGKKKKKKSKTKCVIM
KRAS G12C, sequence (P62937 whole entry): as the sequence (P62937 whole entry) above
Method: as §2, §3, §4, §5

KRAS Q61H = KRAS Q61H (Homo sapiens, UniProt P01116+P62937, Q61H); assay: as above; format: biochemical; conditions: read-out: KRAS Q61H FRET data IC50
KRAS Q61H, sequence (P01116 1-188 isoform P01116-2 Q61H): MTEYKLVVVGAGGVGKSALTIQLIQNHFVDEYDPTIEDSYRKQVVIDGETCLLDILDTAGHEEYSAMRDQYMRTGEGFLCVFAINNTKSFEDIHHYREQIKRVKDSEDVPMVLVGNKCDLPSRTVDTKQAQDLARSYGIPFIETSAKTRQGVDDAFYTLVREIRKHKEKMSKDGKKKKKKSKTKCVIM
KRAS Q61H, sequence (P62937 whole entry): as the sequence (P62937 whole entry) above
Method: as §2, §3, §4, §5

AsPC-1 (K-Ras G12D) = assay: Potency assay: pERK; format: cell-based; conditions: Homo sapiens, ASPC1
Capan-1 (K-Ras G12V) = assay: Potency assay: pERK; format: cell-based; conditions: Homo sapiens
KRAS G12D = KRAS G12D (Homo sapiens, UniProt P01116+P62937, G12D); assay: Disruption of BRAF RBD interaction with K-Ras (FRET / MOA assay); format: biochemical
KRAS G12D, sequence (P01116 1-188 isoform P01116-2 G12D): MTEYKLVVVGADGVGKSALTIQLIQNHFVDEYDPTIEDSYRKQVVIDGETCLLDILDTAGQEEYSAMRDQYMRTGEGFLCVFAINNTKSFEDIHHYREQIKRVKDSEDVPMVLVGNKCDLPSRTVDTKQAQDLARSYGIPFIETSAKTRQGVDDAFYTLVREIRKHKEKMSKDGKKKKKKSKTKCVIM
KRAS G12D, sequence (P62937 whole entry): as the sequence (P62937 whole entry) above
Method: as §2, §3, §4, §5

KRAS G12V = KRAS G12V (Homo sapiens, UniProt P01116+P62937, G12V); assay: as above; format: biochemical; conditions: read-out: FRET G12V IC50
KRAS G12V, sequence (P01116 1-188 isoform P01116-2 G12V): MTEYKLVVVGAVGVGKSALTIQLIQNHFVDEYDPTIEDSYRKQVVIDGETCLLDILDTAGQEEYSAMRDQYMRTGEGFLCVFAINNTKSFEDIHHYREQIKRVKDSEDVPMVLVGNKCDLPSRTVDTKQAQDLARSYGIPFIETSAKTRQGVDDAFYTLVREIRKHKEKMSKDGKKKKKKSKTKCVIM
KRAS G12V, sequence (P62937 whole entry): as the sequence (P62937 whole entry) above
Method: as §2, §3, §4, §5

KRAS G13D = KRAS G13D (Homo sapiens, UniProt P01116+P62937, G13D); assay: as above; format: biochemical
KRAS G13D, sequence (P01116 1-188 isoform P01116-2 G13D): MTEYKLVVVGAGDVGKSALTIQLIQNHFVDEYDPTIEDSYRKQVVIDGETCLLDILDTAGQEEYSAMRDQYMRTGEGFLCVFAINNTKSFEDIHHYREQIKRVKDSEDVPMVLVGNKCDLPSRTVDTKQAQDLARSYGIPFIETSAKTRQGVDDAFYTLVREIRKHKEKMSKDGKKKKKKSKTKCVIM
KRAS G13D, sequence (P62937 whole entry): as the sequence (P62937 whole entry) above
Method: as §2, §3, §4, §5

[1] = test system: NCI-H358 cells (K-Ras G12C); assay: Potency assay: pERK; format: cell-based; conditions: Homo sapiens
Method: The purpose of this assay is to measure the ability of test compounds to inhibit K-Ras in cells. […] This procedure measures a decrease in cellular pERK in response to test compounds. The procedure described below in NCI-H358 cells is applicable to K-Ras G12C.
NCI-H358 cells were grown and maintained using media and procedures recommended by the ATCC. On the day prior to compound addition, cells were plated in 384-well cell culture plates (40 μl/well) and grown overnight in a 37° C., 5% CO2 incubator. Test compounds were prepared in 10, 3-fold dilutions in DMSO, with a high concentration of 10 mM. On day of assay, 40 nl of test compound was added to each well of cell culture plate using an Echo550 liquid handler (LabCyte®). Concentrations of test compound were tested in duplicate. […]
In some experiments, cellular pERK level was determined using the AlphaLISA SureFire Ultra p-ERK1/2 Assay Kit (PerkinElmer). […] Signal was read on an Envision plate reader (PerkinElmer) using standard AlphaLISA settings. […] Signal was plotted vs. the decadal logarithm of compound concentration, and IC50 was determined by fitting a 4-parameter sigmoidal concentration response model.
In other experiments, cellular pERK was determined by In-Cell Western. […] Signal was plotted vs. the decadal logarithm of compound concentration, and IC50 was determined by fitting a 4-parameter sigmoidal concentration response model.

CCn1c(-c2cccnc2[C@H](C)OC)c2c3cc(ccc31)-c1cc(O)cc(c1)C[C@H](NC(=O)[C@H](C(C)C)N(C)C(=O)[C@@H]1CCN(C(=O)OC)[C@@H]1c1ccccc1)C(=O)N1CCC[C@H](N1)C(=O)OCC(C)(C)C2 (atropisomer, axis not shown) [Compound A501]
IC50 (NCI-H358 (K-Ras G12C)): < 10 nM
IC50 (NRAS Q61R): 10 to 100 nM
IC50 (NRAS Q61K): 10 to 100 nM
IC50 (NRAS WT): < 10 nM
IC50 (NRAS G12C): < 10 nM
IC50 (KRAS G13C; read-out: KRAS G13C FRET data IC50): < 10 nM
IC50 (KRAS G12S): < 10 nM
IC50 (KRAS G12C; read-out: KRAS G12C FRET data IC50): < 10 nM
IC50 (KRAS Q61H): < 10 nM

CCn1c(-c2cnccc2COC)c2c3cc(ccc31)-c1cc(O)cc(c1)C[C@H](NC(=O)[C@H](C(C)C)N(C)C(=O)OC1CN(C)C1)C(=O)N1CCC[C@H](N1)C(=O)OCC(C)(C)C2 [Compound A74]
EC50 (AsPC-1 (K-Ras G12D)): 468 nM
EC50 (Capan-1 (K-Ras G12V)): 413 nM
IC50 (KRAS G12D): 228 nM
IC50 (KRAS G13C; read-out: FRET G13C IC50): 91 nM
IC50 (KRAS G12V): 3670 nM
IC50 (KRAS G12C; read-out: FRET G12C IC50): 450 nM
IC50 (KRAS G13D): 212 nM
EC50 [1]: 334 nM
